{
  "source": "paper PMC9929232",
  "about": "“On-demand male contraception via acute inhibition of soluble adenylyl cyclase” (Nature Communications, 2023)",
  "key": {"[1]": {"target": "T1, sAC-overexpressing rat 4-4 cells (Rattus norvegicus, UniProt Q9Z286)", "T1 construct": "expressed in transfected cells", "T1 sequence (Q9Z286 1-469 limits assumed)": "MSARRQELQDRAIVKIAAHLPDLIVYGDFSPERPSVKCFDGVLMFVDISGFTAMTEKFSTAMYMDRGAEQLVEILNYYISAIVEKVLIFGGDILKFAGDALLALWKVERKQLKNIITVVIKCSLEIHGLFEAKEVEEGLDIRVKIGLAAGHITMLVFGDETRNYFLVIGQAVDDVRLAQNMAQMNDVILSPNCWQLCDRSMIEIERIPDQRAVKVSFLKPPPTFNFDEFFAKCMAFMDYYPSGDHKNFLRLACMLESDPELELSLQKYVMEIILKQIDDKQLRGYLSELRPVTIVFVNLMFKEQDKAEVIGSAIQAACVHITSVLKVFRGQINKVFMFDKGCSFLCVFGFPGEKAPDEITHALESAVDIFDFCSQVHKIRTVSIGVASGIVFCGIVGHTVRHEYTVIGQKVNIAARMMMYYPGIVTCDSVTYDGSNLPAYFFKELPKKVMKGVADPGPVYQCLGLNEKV", "test": "Cellular cAMP accumulation in sAC-overexpressing 4-4 cells", "format": "cell-based", "design": "cAMP accumulated: unit not given here", "settings": "for cAMP accumulated (%): Fig. 1d normalized replicates; for cAMP accumulated: Fig. 1d replicates", "experimental": "sAC-overexpressing rat 4-4 cells were generated and functionally authenticated in our laboratory as previously described[33] and grown in DMEM + 10% FBS. Cells were maintained at 37 °C in 5% CO2 and were periodically checked for mycoplasma contamination.\nTo assess potency in a cellular system, we utilized 4-4 cells, which stably overexpress sAC[20],[33],[56]. Cellular levels of cAMP reflect a balance between its synthesis by adenylyl cyclases and its degradation by phosphodiesterases (PDEs). […] On the day prior to the assay, 5 × 10^6 cells/ml were seeded in 24-well plates in DMEM with 10% FBS. To measure sAC-dependent cAMP accumulation, cells were pretreated for 10 min with the respective inhibitor at the indicated concentrations or DMSO as control in 300 µl fresh media. Cyclic AMP accumulation was initiated by the addition of 500 µM IBMX, and after 5 min, the media was removed, and the cells were lysed with 250 µl 0.1 M HCl by shaking at 700 rpm for 10 min."}, "[2]": {"tested_on": "ejaculated uterine mouse sperm", "test": "cAMP in ejaculated uterine mouse sperm from injected males", "format": "in vivo", "experimental": "(§1) For analysis of ejaculated uterine mouse sperm, the uteri of females with mating plugs were removed and placed into 1 ml TYH buffer."}, "[3]": {"tested_on": "ejaculated uterine mouse sperm", "test": "Motility (CASA) of ejaculated uterine mouse sperm from injected males", "format": "in vivo", "design": "hyperactivated motility (%): concentration or dose not given beside the values", "experimental": "as §1\nFor ex vivo assessment of mouse sperm from inhibitor-treated mice, sperm (25 µl) isolated at the indicated time points (15 min to 24 hours post-injection) diluted 1:5 in non-capacitating TYH buffer were loaded on a […] Leja slide (Hamilton Thorne) and placed on a microscope stage at 37 °C. Sperm movements of 10 fields of at least 200 sperm were examined using computer-assisted sperm analysis (CASA) via Hamilton–Thorne digital image analyzer (IVOS II, Hamilton Thorne Research, Beverly, MA) with the following parameters: 30 frames, frame rate: 60 Hz, cell size: 30–170 μm^2. Ejaculated uterine mouse sperm were recorded without additional dilution. Sperm were considered motile when presenting STR ≥80% and VAP ≥50 μm/s and hyperactivated when presenting VCL ≥270 μm/s, LIN < 50%, and ALH ≥7 μm. Track´s color code: motile (green), progressive (turquoise), hyperactivated (purple), slow (pink), static (red), not counted due to late entry (yellow)."}, "[4]": {"test": "Pharmacokinetic analysis of TDI-11861 in blood and tissues (LC-MS)", "format": "in vivo, mouse", "settings": "i.p.; including cauda epididymis, excluding testis", "experimental": "At defined time points (15 min to 24 hours post-injection), 10 μl tail blood was progressively collected from the same males, mixed with 20 μl 15 mM EDTA, frozen in liquid nitrogen, and stored at −80 °C until analysis. Liver, kidney, eye, testis, caput and cauda epididymis, and seminal vesicle were collected, weighed, and homogenized in a threefold volume of 1:1 EtOH/H2O (v/v). […] Mice anesthetized with ketamine/xylazine were shaved and residual hair was removed with hair removal cream. A small incision was made with a scalpel, a hemostat was used to create a pump-size pocket under the skin, and the pump was inserted with the pump opening facing away from the incision. After the wound was closed, mice were treated with meloxicam for pain relief. For 7 or 42 days post-surgery, tail blood was collected at regular intervals."}, "[5]": {"tested_on": "mice", "format": "in vivo", "settings": "for at least 24 hours"}, "[6]": {"test": "Solubility", "format": "physicochemical", "settings": "unsuitable for chronic delivery to mice"}, "[7]": {"test": "Pharmacokinetic analysis of TDI-11861 in blood and tissues (LC-MS)", "format": "in vivo, mouse", "settings": "oral, 1 and 3 hours; caput and cauda epididymis, seminal vesicles, not testis"}, "[8]": {"tested_on": "tmACs from each subfamily", "settings": "cited from earlier work"}, "[9]": {"tested_on": "ion channels, GPCRs, kinases, and nuclear receptors", "settings": "cited from earlier work"}, "[10]": {"tested_on": "over 310 kinases", "settings": "cited from earlier work"}, "[11]": {"tested_on": "hERG", "settings": "cited from earlier work"}, "[12]": {"settings": "cited from earlier work"}, "[13]": {"settings": "cited from earlier work", "remark": "listed apart in the source"}, "[14]": {"settings": "cited from earlier work", "remark": "listed apart in the source"}, "[15]": {"settings": "at 20 µM; cited from earlier work"}, "[16]": {"settings": "Fig. 4a replicates, ejaculated uterine sperm, 2 hours after 50 mg/kg i.p."}},
  "note": "“And” between values parts separate entries of the source, which are not always exact repeats. Identical values can stand only once.",
  "data": [
    {"smiles": "Cc1c(Cc2ccccc2)c(-c2cc(Cl)nc(N)n2)nn1C", "note": "[TDI-10229, reference compound]", "values": [
      {"measurement": "cAMP accumulated (%)", "setting": "[1]; printed 0", "result": "3.303% and 10.629% and 8.51% and 2.193% and 5.92% and 3.107% and 22.11% and 16.4972% and 11.8328% and 5.524% and 4.206% and 1.889% and 2.077%"},
      {"measurement": "cAMP accumulated (%)", "setting": "[1]; printed 0.477121", "result": 0, "unit": "%"},
      {"measurement": "cAMP accumulated (%)", "setting": "[1]; printed -0.52288", "result": "40.0361% and 25.5301% and 16.8792% and 12.1343% and 19.6251% and 46.0455% and 19.6826% and 32.1271% and 49.6122% and 23.5829% and 24.3244% and 21.4812% and 12.9118%"},
      {"measurement": "cAMP accumulated (%)", "setting": "[1]; printed -1", "result": "53.928% and 46.3142% and 43.7516% and 31.429% and 23.6328% and 79.7321% and 41.9299% and 71.9606% and 102.407% and 49.6166% and 29.8946% and 34.6849% and 30.4462%"},
      {"measurement": "cAMP accumulated (%)", "setting": "[1]; printed -1.47712", "result": "63.9701% and 48.7859% and 51.356% and 54.7326% and 51.5128% and 120.896% and 78.187% and 107.566% and 161.903% and 63.1342%"},
      {"measurement": "cAMP accumulated", "setting": "[1]; concentration (uM) -1.95424 [sic]", "result": "47.248 and 20.896 and 22.932 and 53.28 and 23.028 and 39.526 and 63.525 and 88.135 and 120.985 and 194.007 and 68.902 and 22.685"},
      {"measurement": "cAMP accumulated", "setting": "[1]; concentration (uM) -2.43136 [sic]", "result": "48.561 and 22.294 and 31.915 and 66.057 and 37.215 and 54.337 and 58.571 and 46.103 and 61.044 and 66.819 and 131.064 and 78.712 and 23.002"},
      {"measurement": "cAMP accumulated", "setting": "[1]; concentration (uM) -2.90848 [sic]", "result": "49.13 and 27.611 and 32.179 and 77.343 and 38.522 and 35.67 and 62.766 and 41.76 and 54.941 and 113.858 and 170.305 and 78.712 and 23.104"}
    ]},
    {"smiles": "Nc1nc(Cl)cc(-c2nn(C(F)F)cc2Cc2ccccc2OCCN2CCOC[C@@H]2CO)n1", "note": "[TDI-11861]", "values": [
      {"measurement": "bicarbonate-induced cAMP in ejaculated sperm", "setting": "[2]; 50 mg/kg i.p., retrieved from uterus", "result": "no bicarbonate-induced increase in cAMP"},
      {"measurement": "cAMP, capacitating media", "setting": "[2]; [16]", "result": "0.692 pmol/10^6 sperm and 0.283 pmol/10^6 sperm and 0.5995 pmol/10^6 sperm and 0.72 pmol/10^6 sperm and 1.204 pmol/10^6 sperm and 0.492 pmol/10^6 sperm and 0.468 pmol/10^6 sperm and 0.24 pmol/10^6 sperm"},
      {"measurement": "cAMP, non-capacitating media", "setting": "[2]; [16]", "result": "0.738 pmol/10^6 sperm and 1.2045 pmol/10^6 sperm and 0.9637 pmol/10^6 sperm and 0.847 pmol/10^6 sperm and 1.232 pmol/10^6 sperm and 0.679 pmol/10^6 sperm and 0.436 pmol/10^6 sperm and 0.514 pmol/10^6 sperm"},
      {"measurement": "motility of ejaculated sperm", "setting": "[3]; 50 mg/kg i.p., retrieved from uterus post-coitus", "result": "immotile"},
      {"measurement": "progressive motility (%)", "setting": "[3]; Fig. 4b, ejaculated sperm", "result": "4.7% and 5.3% and 8.9% and 7% and 4% and 4.75% and 3.2%"},
      {"measurement": "hyperactivated motility (%)", "setting": "[3]; Fig. 4c, ejaculated sperm", "result": "1.4% and 0.8% and 0.5% and 0.9% and 1.1%"},
      {"measurement": "levels in tissues versus blood", "setting": "[4]", "result": "correlated well with levels in blood"},
      {"measurement": "abnormal mouse behavior after single oral dose", "setting": "[5]", "result": "did not cause any abnormal mouse behavior"},
      {"measurement": "solubility", "setting": "[6]", "result": "limited solubility"},
      {"measurement": "levels in tissues versus blood", "setting": "[7]", "result": "correlated well with its concentration in blood"},
      {"measurement": "activity against tmACs", "setting": "[8]", "result": "no activity"},
      {"measurement": "activity versus 46-member safety panel", "setting": "[9]", "result": "no significant activity"},
      {"measurement": "activity against over 310 kinases", "setting": "[10]", "result": "no significant activity"},
      {"measurement": "activity in hERG electrophysiology studies", "setting": "[11]", "result": "no significant activity"},
      {"measurement": "activity in glutathione trapping assays", "setting": "[12]", "result": "no significant activity"},
      {"measurement": "activity in AMES assays", "setting": "[13]", "result": "no significant activity"},
      {"measurement": "DEREK analysis for mutagenicity risks", "setting": "[14]", "result": "no significant activity"},
      {"measurement": "cytotoxicity in cell viability assays", "setting": "[15]", "result": "no significant activity"}
    ]}
  ]
}
